Test results from US10966978B2, “Dose and regimen for HDM2-p53 interaction inhibitors” (Novartis AG, priority 2016, dated 2021).
Where two headings read alike, the source gives them in different places.

System: patients with advanced TP53 wild-type (WT) leukemias
[1] = All subjects N = 37, All Grades

COc1ncc(-c2nc3c(n2C(C)C)[C@H](c2ccc(Cl)cc2)N(c2cc(Cl)cn(C)c2=O)C3=O)c(OC)n1 [HDM201, (S)-5-(5-Chloro-1-methyl-2-oxo-1,2-dihydro-pyridin-3-yl)-6-(4-chloro-phenyl)-2-(2,4-dimethoxy-pyrimidin-5-yl)-1-isopropyl-5,6-dihydro-1H-pyrrolo[3,4-d]imidazol-4-one]
Cycle 1 DLTs (1A 350 mg (4 evaluable patients)): 0 | Cycle 1 DLTs (1A 400 mg (9 evaluable patients)): 4 | Cycle 1 DLTs (1A (d1 Q3W) 250 mg (3 evaluable patients)): 0 | Cycle 1 DLTs, Total (1A all doses, N = 16): 4: | Cycle 1 DLTs (1B (d1, d8 Q4W) 150 mg (6 evaluable patients)): 1 | Cycle 1 DLT events observed (1B, N = 6): Acute Kidney Injury G4 | Cycle 1 DLTs (2A 30 mg (3 evaluable patients)): 0 | Cycle 1 DLTs (2A (2 weeks on/2 weeks off) 20 mg (3 evaluable patients)): 0 | Cycle 1 DLTs, Total (2A all doses, N = 6): 0 | Cycle 1 DLTs (2C (1 week on/3 weeks off) 45 mg (8 evaluable patients)): 1 | Cycle 1 DLT events observed (2C, N = 8): Tumor Lysis Syndrome G4 | Cycle 1 DLTs, Total (2C, N = 8): 1 | AE: Abdominal Discomfort [1]: 1 (2.7) n (%) | AE: Abdominal Pain [1]: 2 (5.4) n (%) | AE: Abdominal Pain Upper [1]: 1 (2.7) n (%) | AE: Acute Kidney Injury [1]: 3 (8.1) n (%) | AE: Amylase Increased [1]: 3 (8.1) n (%) | AE: Anaemia [1]: 16 (43.2) n (%) | AE: Arthralgia [1]: 1 (2.7) n (%) | AE: Asthenia [1]: 5 (13.5) n (%) | AE: Atrial Fibrillation [1]: 2 (5.4) n (%) | AE: Atypical Pneumonia [1]: 1 (2.7) n (%) | AE: Balanitis Candida [1]: 1 (2.7) n (%) | AE: Blood Alkaline Phosphatase Increased [1]: 1 (2.7) n (%) | AE: Blood Bilirubin Increased [1]: 2 (5.4) n (%) | AE: Blood Creatinine Increased [1]: 3 (8.1) n (%) | AE: Blood Phosphorus Increased [1]: 3 (8.1) n (%) | AE: Blood Uric Acid Increased [1]: 1 (2.7) n (%) | AE: Bone Marrow Failure [1]: 1 (2.7) n (%) | AE: C-Reactive Protein Increased [1]: 2 (5.4) n (%) | AE: Cardiac Failure [1]: 1 (2.7) n (%) | AE: Cellulitis [1]: 1 (2.7) n (%) | AE: Chronic Graft Versus Host Disease [1]: 1 (2.7) n (%) | AE: Conjunctival Haemorrhage [1]: 1 (2.7) n (%) | AE: Constipation [1]: 2 (5.4) n (%) | AE: Cough [1]: 1 (2.7) n (%) | AE: Cystitis Viral [1]: 1 (2.7) n (%) | AE: Cytomegalovirus Infection [1]: 1 (2.7) n (%) | AE: Decreased Appetite [1]: 10 (27.0) n (%) | AE: Diarrhoea [1]: 6 (16.2) n (%) | AE: Dyspepsia [1]: 2 (5.4) n (%) | AE: Dyspnoea [1]: 1 (2.7) n (%) | AE: Epistaxis [1]: 1 (2.7) n (%) | AE: Fatigue [1]: 6 (16.2) n (%) | AE: Febrile Neutropenia [1]: 11 (29.7) n (%) | AE: Gamma-Glutamyltransferase Increased [1]: 2 (5.4) n (%) | AE: General Physical Health Deterioration [1]: 2 (5.4) n (%) | AE: Gingival Bleeding [1]: 2 (5.4) n (%) | AE: Graft Versus Host Disease [1]: 1 (2.7) n (%) | AE: Haemoglobin Decreased [1]: 1 (2.7) n (%) | AE: Headache [1]: 2 (5.4) n (%) | AE: Hyperbilirubinaemia [1]: 3 (8.1) n (%) | AE: Hyperglycaemia [1]: 1 (2.7) n (%) | AE: Hyperkalaemia [1]: 1 (2.7) n (%) | AE: Hyperphosphataemia [1]: 3 (8.1) n (%) | AE: Hyperuricaemia [1]: 2 (5.4) n (%) | AE: Hypoalbuminaemia [1]: 1 (2.7) n (%) | AE: Hypocalcaemia [1]: 2 (5.4) n (%) | AE: Hypokalaemia [1]: 1 (2.7) n (%) | AE: Hypomagnesaemia [1]: 1 (2.7) n (%) | AE: Hyponatraemia [1]: 2 (5.4) n (%) | AE: Hypophosphataemia [1]: 2 (5.4) n (%) | AE: Hypotension [1]: 1 (2.7) n (%) | AE: Infection [1]: 1 (2.7) n (%) | AE: Infective Glossitis [1]: 1 (2.7) n (%) | AE: Iron Overload [1]: 1 (2.7) n (%) | AE: Leukopenia [1]: 2 (5.4) n (%) | AE: Lip Oedema [1]: 1 (2.7) n (%) | AE: Lipase Increased [1]: 3 (8.1) n (%) | AE: Macular Oedema [1]: 1 (2.7) n (%) | AE: Malaise [1]: 2 (5.4) n (%) | AE: Mouth Haemorrhage [1]: 2 (5.4) n (%) | AE: Nausea [1]: 20 (54.1) n (%) | AE: Neutropenia/Neutrophil Count Decreased [1]: 12 (32.4) n (%) | AE: Oedema [1]: 1 (2.7) n (%) | AE: Oedema Peripheral [1]: 1 (2.7) n (%) | AE: Oral Disorder [1]: 1 (2.7) n (%) | AE: Pain In Extremity [1]: 1 (2.7) n (%) | AE: Pancytopenia [1]: 2 (5.4) n (%) | AE: Pneumonia [1]: 1 (2.7) n (%) | AE: Pollakiuria [1]: 1 (2.7) n (%) | AE: Pyrexia [1]: 4 (10.8) n (%) | AE: Rash [1]: 1 (2.7) n (%) | AE: Rash Erythematous [1]: 1 (2.7) n (%) | AE: Rash Papular [1]: 1 (2.7) n (%) | AE: Rectal Haemorrhage [1]: 1 (2.7) n (%) | AE: Renal Failure [1]: 1 (2.7) n (%) | AE: Skin Exfoliation [1]: 1 (2.7) n (%) | AE: Stomatitis [1]: 2 (5.4) n (%) | AE: Subarachnoid Haemorrhage [1]: 1 (2.7) n (%) | AE: Thrombocytopenia/Platelet Count Decreased [1]: 18 (48.6) n (%) | AE: Total [1]: 33 (89.2) n (%) | AE: Tumour Lysis Syndrome [1]: 9 (24.3) n (%) | AE: Vomiting [1]: 7 (18.9) n (%) | AE: Weight Decreased [1]: 1 (2.7) n (%) | AE: White Blood Cell Count Decreased [1]: 4 (10.8) n (%) | AE: Abdominal Discomfort (All subjects N = 37, Grade 3/4): 0 n (%) | AE: Abdominal Pain (All subjects N = 37, Grade 3/4): 0 n (%) | AE: Abdominal Pain Upper (All subjects N = 37, Grade 3/4): 0 n (%) | AE: Acute Kidney Injury (All subjects N = 37, Grade 3/4): 1 (2.7) n (%) | AE: Amylase Increased (All subjects N = 37, Grade 3/4): 0 n (%) | AE: Anaemia (All subjects N = 37, Grade 3/4): 11 (29.7) n (%) | AE: Arthralgia (All subjects N = 37, Grade 3/4): 0 n (%) | AE: Asthenia (All subjects N = 37, Grade 3/4): 0 n (%) | AE: Atrial Fibrillation (All subjects N = 37, Grade 3/4): 0 n (%)
